{"source": "patent US20250017937A1", "about": "“MGLU2/3 ANTAGONISTS FOR THE TREATMENT OF INTELLECTUAL DISABILITIES” (Hoffmann-La Roche Inc., priority 2014, published 2025)", "system": "Shank3 KO mice", "assay": "Water maze cognition experiment (acquisition and reversal learning) in Shank3 KO mice", "assay_type": "in vivo, mouse", "conditions": "female SHANK3-KO mice", "description": "Example 1: Cognition experiment in Shank3 KO mice an animal model of ASD with reported impairment in cognition\n11-12 female wild-type and Shank3 KO mice on C57B16/J background were from F. Hoffmann La Roche breeding facilities, and were 10 weeks old at the beginning of the study. 20male Nlgn3 knockout rats and 20 littermate wild-type controls (background: Sprague Dawley) were from F. Hoffmann La Roche breeding facilities. All rats and mice were group-housed in holding rooms at controlled temperature (20-22° C.), humidity (55-65%) and 12-h light/dark cycle (lights on 06:00 h). All animals were allowed ad libitum access to food and water. The experimental procedures used in the present investigation received prior approval from the City of Basel Cantonal Animal Protection Committee based on adherence to federal and local regulations.\nII-a were synthesized at F. Hoffmann-La Roche Ltd. according to procedures known in the art^12. Both compounds were prepared as a suspension in 0.3% Tween 80 v/v 0.9% saline and administered per os by gavage using an administration volume of 5 ml/kg (rat) or 10 ml/kg (mouse). […] All doses reported in this study are expressed as free base equivalents.\nOn days 1-7, II-a was administered once daily per os with 10 mg/kg (WT: n=11: KO: n=12) or vehicle (WT: n=12; KO: n=12), 3 h prior to testing from day 1 of water maze until the last day of testing. The dose of II-a was reduced to 7 mg/kg on days 8-16. Water maze was conducted on days 1-12 of treatment, with 2 days for “shaping” prior to the start of drug treatment. The grooming/digging test was conducted on days 15-16. […]\nData analysis: The mean latency, path length, and swim speed were assessed during acquisition and reversal learning. In the probe trial, the percent time spent searching for the previous platform in each quadrant (left, platform, right, and opposite), and the number of platform crossings were measured."}
{"smiles": "Cc1cc(-c2ccc(C(F)(F)F)cc2)cc(-c2cccc(-c3cccc(S(N)(=O)=O)c3)n2)n1", "note": "[II-a]", "values": [{"measurement": "latency to reach platform (mean latency during acquisition and reversal learning)", "setting": "FIGS. 1 and 2, C57BL/6j background, 10 weeks old, II-a 10 mg/kg po chronic vs Veh", "value": "some improvement in latency to reach platform in KO mice only"}, {"measurement": "path length during acquisition and reversal learning", "setting": "FIGS. 1 and 2, II-a 10 mg/kg po chronic vs Veh", "value": "significant block 7"}, {"measurement": "memory impairment in the KO-Veh compared to WT-Veh (water maze)", "setting": "FIGS. 3 and 4, II-a 10 mg/kg po chronic, repeated measures analysis of variance", "value": "improvement"}]}
